One test has as its target T1, MER (Homo sapiens, UniProt Q12866).
T1 sequence (Q12866 21-999): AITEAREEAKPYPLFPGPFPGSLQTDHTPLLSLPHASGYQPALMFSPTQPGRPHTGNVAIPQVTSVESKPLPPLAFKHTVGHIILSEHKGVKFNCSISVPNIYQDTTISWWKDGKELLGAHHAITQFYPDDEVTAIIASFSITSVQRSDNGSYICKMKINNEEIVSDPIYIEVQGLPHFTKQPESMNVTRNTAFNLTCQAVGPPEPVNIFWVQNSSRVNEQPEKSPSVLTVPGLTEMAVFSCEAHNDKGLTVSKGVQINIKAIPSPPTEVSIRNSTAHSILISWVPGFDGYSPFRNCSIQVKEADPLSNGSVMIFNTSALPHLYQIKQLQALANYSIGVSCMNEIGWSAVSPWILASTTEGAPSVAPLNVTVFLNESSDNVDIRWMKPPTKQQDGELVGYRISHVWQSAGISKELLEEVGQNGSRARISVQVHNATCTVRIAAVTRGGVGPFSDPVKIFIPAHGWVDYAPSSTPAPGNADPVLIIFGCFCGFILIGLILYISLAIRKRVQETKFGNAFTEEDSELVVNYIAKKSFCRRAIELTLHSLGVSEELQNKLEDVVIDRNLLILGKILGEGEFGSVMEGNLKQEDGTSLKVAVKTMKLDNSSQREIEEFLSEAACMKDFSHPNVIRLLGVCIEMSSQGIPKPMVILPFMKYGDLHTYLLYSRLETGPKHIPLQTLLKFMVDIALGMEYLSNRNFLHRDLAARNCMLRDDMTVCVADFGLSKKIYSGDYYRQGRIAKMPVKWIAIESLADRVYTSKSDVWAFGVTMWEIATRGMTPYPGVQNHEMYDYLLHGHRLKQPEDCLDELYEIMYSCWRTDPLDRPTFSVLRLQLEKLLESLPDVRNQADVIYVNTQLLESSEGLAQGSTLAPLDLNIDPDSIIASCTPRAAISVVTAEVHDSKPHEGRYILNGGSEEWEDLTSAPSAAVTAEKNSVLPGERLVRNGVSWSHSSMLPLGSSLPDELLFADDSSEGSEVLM
The experiment in a line: Biochemical kinase activity assay (Invitrogen SelectScreen).

A further test addresses T2, DDR2 (Homo sapiens, UniProt Q16832).
T2 construct: purchased Upstate (IC50Profiler Express service)
The experiment in a line: Biochemical kinase activity assay (Upstate IC50Profiler Express). The settings on record: Upstate IC50Profiler Express service.

A further test concerns the target CSK (Homo sapiens, UniProt P41240). The conditions noted are these: purified kinase; published data; cited from earlier work.
Another test has as its target FAK/PTK2 (Homo sapiens, UniProt Q05397). Description: Biochemical kinase activity assay (Invitrogen SelectScreen). The conditions noted are these: read-out: % inhibition, FAK.
For test [1], the system named is phosphorylation sites on kinobeads-captured proteins, K562 cells. The experiment in a line: Phosphorylation analysis of kinobeads-captured proteins from drug-treated K562 cells. The settings on record: of 379 sites on 136 proteins identified. The format is cell-based, human. The source says:
To explore not only the direct targets of the drugs but also their downstream effects on signaling pathways, aliquots of the iTRAQ-labeled peptide mixtures from kinobeads precipitates were subjected to phosphopeptide enrichment and subsequent identification and quantification by mass spectrometry. […] Indeed, most of these proteins have been implicated in signaling events downstream of ABL (FIG. 10b)^16, 18. For all three drugs together, we found down-regulation of 20 sites on 13 proteins (FIGS. 22 and 23).
Mass Spectrometry and Data analysis.
LC-MS/MS for IMAC samples were performed twice.

In the next test the target is BTK (Homo sapiens, UniProt Q06187). The experiment in a line: Biochemical kinase activity assay (Invitrogen SelectScreen). The settings on record: read-out: % inhibition, BTK.
In another test the target is FER (Homo sapiens, UniProt P16591). Described as above. The conditions noted are these: read-out: % inhibition, FER.
The target of a further test is EphB4 (Homo sapiens, UniProt P54760). Described as above. The conditions noted are these: read-out: % inhibition, EphB4.
The next test has as its target KHS1 (Homo sapiens, UniProt Q9Y4K4). The test is described as above. The settings on record: read-out: % inhibition, KHS1.
For another test, the target named is GCK (Homo sapiens, UniProt Q12851). The test is described as above. The settings on record: read-out: % inhibition, GCK.

By IC50 is commonly meant the concentration needed to halve the response being measured. As usually defined, the inhibition is the change of the read-out against control, counted positive when it falls.

Chain of EphB4 (P54760 16-987): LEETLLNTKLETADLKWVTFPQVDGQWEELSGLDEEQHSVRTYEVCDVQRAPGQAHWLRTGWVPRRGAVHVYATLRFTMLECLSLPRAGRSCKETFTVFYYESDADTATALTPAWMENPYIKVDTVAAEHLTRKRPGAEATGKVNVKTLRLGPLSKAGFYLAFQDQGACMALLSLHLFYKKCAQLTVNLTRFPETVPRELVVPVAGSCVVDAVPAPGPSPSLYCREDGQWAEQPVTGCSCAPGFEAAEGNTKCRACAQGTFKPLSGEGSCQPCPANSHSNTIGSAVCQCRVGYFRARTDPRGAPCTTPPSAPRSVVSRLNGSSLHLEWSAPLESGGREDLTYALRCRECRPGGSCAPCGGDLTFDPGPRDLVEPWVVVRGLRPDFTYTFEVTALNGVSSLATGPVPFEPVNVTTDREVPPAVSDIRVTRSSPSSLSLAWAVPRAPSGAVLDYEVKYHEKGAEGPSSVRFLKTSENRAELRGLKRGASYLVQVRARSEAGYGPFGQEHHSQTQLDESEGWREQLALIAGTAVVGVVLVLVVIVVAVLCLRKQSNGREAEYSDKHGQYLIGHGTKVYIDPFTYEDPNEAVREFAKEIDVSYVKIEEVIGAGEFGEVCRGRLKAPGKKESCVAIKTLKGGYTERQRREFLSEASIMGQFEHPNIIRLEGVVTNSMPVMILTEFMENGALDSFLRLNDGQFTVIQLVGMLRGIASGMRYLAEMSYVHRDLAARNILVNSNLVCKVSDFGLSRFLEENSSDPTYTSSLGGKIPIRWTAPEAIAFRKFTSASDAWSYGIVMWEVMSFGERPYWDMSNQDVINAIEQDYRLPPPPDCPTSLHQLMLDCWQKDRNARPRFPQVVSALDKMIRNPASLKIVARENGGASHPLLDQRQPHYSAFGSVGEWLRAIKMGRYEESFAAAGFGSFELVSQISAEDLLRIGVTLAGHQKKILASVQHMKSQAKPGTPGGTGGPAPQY
Chain of FER (P16591 whole entry): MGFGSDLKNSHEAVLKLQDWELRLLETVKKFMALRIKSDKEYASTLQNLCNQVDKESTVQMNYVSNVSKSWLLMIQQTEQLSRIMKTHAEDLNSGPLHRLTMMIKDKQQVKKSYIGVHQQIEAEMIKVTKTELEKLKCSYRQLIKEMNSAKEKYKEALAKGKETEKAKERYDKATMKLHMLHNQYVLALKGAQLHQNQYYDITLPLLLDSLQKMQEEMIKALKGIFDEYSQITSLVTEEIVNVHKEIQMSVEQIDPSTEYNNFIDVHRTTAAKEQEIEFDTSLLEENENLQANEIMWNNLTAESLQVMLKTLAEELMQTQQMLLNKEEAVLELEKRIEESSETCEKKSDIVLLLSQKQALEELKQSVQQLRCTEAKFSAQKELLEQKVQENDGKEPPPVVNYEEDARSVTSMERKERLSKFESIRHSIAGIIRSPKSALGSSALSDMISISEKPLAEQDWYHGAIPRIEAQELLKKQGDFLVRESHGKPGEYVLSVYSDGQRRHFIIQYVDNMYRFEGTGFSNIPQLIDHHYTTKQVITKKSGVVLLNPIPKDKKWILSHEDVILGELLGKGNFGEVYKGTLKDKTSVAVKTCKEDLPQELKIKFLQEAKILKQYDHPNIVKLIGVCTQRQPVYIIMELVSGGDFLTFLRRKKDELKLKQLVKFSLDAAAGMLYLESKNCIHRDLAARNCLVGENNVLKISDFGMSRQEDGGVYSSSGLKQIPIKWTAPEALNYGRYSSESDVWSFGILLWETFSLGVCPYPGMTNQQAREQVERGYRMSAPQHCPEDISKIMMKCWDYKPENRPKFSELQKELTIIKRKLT
Chain of CSK (P41240 whole entry, species assumed): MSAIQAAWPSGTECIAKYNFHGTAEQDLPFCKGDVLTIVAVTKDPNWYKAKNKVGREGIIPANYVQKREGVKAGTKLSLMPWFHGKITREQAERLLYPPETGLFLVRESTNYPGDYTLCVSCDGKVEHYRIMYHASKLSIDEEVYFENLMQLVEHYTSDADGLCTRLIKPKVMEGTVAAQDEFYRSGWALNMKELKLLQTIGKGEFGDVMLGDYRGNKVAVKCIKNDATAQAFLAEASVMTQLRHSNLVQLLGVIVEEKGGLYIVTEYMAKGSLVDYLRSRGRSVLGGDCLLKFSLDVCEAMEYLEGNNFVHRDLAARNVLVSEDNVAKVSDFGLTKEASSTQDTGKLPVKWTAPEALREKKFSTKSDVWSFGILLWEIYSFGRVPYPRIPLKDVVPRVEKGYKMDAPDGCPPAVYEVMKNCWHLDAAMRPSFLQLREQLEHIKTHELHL
Chain of FAK/PTK2 (Q05397 whole entry): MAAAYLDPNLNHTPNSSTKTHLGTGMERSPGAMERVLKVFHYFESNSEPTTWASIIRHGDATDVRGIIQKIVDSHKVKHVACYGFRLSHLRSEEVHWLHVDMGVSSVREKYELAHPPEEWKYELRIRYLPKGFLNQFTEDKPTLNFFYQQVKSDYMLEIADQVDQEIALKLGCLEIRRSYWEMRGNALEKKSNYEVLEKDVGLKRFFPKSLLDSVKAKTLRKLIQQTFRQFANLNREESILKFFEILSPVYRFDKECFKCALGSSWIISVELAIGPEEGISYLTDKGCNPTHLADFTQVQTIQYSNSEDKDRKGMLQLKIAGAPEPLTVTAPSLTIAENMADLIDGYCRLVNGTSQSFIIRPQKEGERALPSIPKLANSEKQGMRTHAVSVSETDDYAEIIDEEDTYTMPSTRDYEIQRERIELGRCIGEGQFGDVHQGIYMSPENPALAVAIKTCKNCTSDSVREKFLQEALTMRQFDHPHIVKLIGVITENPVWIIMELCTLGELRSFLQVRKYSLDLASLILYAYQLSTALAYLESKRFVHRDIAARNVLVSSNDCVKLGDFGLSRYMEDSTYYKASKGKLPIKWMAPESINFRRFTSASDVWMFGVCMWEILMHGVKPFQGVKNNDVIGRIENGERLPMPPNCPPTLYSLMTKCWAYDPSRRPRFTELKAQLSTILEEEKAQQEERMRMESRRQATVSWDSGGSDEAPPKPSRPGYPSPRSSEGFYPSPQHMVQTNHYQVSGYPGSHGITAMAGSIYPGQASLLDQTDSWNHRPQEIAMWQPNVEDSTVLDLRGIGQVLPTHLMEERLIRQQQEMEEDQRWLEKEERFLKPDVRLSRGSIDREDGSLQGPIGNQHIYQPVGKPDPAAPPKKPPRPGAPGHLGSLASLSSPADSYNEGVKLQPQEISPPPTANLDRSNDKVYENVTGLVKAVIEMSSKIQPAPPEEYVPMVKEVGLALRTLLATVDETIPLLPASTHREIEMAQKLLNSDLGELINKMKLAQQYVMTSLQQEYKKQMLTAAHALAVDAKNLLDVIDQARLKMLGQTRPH
Chain of BTK (Q06187 whole entry): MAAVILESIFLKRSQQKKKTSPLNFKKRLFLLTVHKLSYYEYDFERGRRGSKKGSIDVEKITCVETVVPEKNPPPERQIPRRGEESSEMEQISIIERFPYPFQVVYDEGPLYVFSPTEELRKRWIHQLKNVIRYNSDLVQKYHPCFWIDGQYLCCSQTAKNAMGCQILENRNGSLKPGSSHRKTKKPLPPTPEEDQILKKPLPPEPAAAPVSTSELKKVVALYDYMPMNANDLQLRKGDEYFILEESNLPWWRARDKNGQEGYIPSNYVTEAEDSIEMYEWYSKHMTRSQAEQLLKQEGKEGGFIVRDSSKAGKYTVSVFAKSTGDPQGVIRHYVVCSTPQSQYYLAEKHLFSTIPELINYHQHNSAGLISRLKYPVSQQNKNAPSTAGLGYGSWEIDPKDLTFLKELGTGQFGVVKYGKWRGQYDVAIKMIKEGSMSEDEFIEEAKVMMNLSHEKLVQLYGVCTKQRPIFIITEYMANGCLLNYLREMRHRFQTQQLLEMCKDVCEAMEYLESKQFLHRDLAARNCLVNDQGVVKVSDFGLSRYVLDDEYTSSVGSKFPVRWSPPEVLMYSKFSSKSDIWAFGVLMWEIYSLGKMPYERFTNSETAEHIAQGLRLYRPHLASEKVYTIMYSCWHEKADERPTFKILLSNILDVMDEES
Chain of KHS1 (Q9Y4K4 whole entry): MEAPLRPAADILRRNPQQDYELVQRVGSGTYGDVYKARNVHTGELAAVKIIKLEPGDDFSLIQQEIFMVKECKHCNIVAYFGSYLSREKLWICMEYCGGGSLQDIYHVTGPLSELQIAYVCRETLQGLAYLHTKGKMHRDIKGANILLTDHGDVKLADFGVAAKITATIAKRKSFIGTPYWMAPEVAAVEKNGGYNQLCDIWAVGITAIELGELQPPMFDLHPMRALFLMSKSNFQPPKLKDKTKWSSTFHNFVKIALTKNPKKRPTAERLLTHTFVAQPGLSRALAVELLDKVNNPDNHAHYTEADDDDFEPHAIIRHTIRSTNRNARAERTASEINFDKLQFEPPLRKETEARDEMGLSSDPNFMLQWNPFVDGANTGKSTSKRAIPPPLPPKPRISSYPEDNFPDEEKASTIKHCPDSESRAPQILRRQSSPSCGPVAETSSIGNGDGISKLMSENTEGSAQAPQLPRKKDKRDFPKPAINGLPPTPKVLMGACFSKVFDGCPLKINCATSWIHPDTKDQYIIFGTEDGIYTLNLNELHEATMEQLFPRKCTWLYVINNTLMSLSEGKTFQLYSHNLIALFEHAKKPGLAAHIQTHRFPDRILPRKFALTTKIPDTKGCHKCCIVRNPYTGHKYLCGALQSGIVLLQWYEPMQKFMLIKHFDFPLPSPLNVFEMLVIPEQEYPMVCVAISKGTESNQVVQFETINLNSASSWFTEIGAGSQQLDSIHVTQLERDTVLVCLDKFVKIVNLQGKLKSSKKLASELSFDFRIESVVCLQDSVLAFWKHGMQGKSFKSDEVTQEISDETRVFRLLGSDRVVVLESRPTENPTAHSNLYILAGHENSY

For the compound `COc1cc(Nc2c(C#N)cnc3cc(OCCCN4CCN(C)CC4)c(OC)cc23)c(Cl)cc1Cl` [bosutinib], the IC50 was 15.7 nM at MER, 4900 nM against DDR2 and 310 nM at CSK.

As to `Cc1ccc(NC(=O)c2ccc(CN3CCN(C)CC3)cc2)cc1Nc1nccc(-c2cccnc2)n1` [imatinib], the inhibition at 5 µM at FAK/PTK2 stood at 2%; on BTK, 4%; on MER (read-out: % inhibition, MER), 11%; on FER, 14%; at EphB4, 5%; at KHS1, 14%. Besides, the inhibition at 5 µM on GCK turned out to be 10%. In addition, the “number of phosphorylation sites with substantial down-regulation” value in test [1] is recorded as “Eight”.

Source of the values: patent US20090238808A1, “Process for the identification of novel enzyme interacting compounds” (priority 2005, published 2009).
